Where “and” joins values, the source holds several entries; their conditions need not be identical. Equal values may be shown once.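 Five concentrations, 48 hours, 96-well plates. GI50 is the concentration that inhibits growth by half. TGI: concentration producing complete growth inhibition.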

The test system of the first test is SK-MEL-2 melanoma. Kind of test: NCI anticancer screen, dose series, 48 h.
With `O=[N+]([O-])O.[Cu+2].[NH-]CC[NH-].[NH-]CC[NH-]`, the GI50 was over 10 µM and the TGI is over 10 µM.
As for `Cc1nn2c(/C=C3\C(=O)Nc4ccc(Cl)cc43)c(C)nc2s1`, the GI50 was 22.2 µM and the TGI is 82.4 µM.
The like results for `COc1ccc(C(=O)OC2C(OC3C(O)COC(O[C@H]4C[C@H]5[C@@H]6CC=C7C[C@@H](O)CC[C@]7(C)[C@H]6CC[C@]5(C)[C@H]4[C@H](C)C(=O)CCC(C)C)C3OC(N)=O)OCC(O)C2O)cc1` (some centres not stated) were, in that order, 0.00527 µM and 0.242 µM.
With `c1ccc2[nH]c(-c3ccc(-c4nccc5c4[nH]c4ccccc45)cc3)nc2c1`, the GI50 is 1.99 µM and the TGI is 4.34 µM.
Regarding `COC(=O)c1nc(-c2ccccc2)oc1S(=O)(=O)Cc1ccccc1`, the GI50 is 12.7 µM and the TGI was found to be 26.9 µM.
The like results for `CN(O)c1nc(N(C)O)nc(N2CCOCC2)n1` were, in that order, 7.7 µM and over 100 µM.
The like results for `COc1ccc(-c2c[nH]c(C(=O)O)c2-c2cc(OC)c(OC)c(OC)c2)cc1` were, in that order, 5.45 µM and over 100 µM.
The like results for `C#Cc1c(F)ccc2cc(O)cc(-c3ncc4c(N5CC6CCC(C5)N6)nc(OC[C@@]56CCCN5C[C@H](F)C6)nc4c3F)c12` were, in that order, 16.9 µM and 32.9 µM.
On to `C=C(C)C(=O)Nc1ccc(NC(C)C)cc1`, for which the GI50 was over 100 µM and the TGI is over 100 µM.
With `C=C(C)C(=O)O[C@H]1CC(=C)[C@@H]2C[C@H](O)[C@](O)(CCl)[C@@H]2[C@H]2OC(=O)C(=C)[C@@H]21`, the GI50 is 6.59 µM and the TGI was determined as 22 µM.
For `CCC1C2Cc3ccc(O)cc3C1(CC)CCN2C` (configuration not stated), the TGI is over 100 µM.
`COc1cnc2c(c1)C(=O)c1c-2n(CCCn2ccnc2)c(=O)c2cc(F)ccc12`: the GI50 was 0.232 µM and the TGI was found to be 0.449 µM.
`CC1CCC(NC(=O)N(CCCl)N=O)CC1` (configuration not stated): the GI50 was 20.4 µM; the TGI was 48.1 µM and 91.2 µM.
`CC(C)[C@H](N)C(=O)N1CCC[C@H]1B(O)O`: the GI50 was over 100 µM and the TGI is over 100 µM.
As for `COc1ccc2cc(C(=O)/C=C/c3ccc(Cl)cc3Cl)ccc2c1`, the GI50 was 44.4 µM and the TGI turned out to be 95.7 µM.

Another test relates to A549 NSCLC. Kind of test: NCI anticancer screen, dose series, 48 h.
Regarding `O=[N+]([O-])O.[Cu+2].[NH-]CC[NH-].[NH-]CC[NH-]`, the GI50 was over 10 µM and the TGI was over 10 µM.
On to `Cc1nn2c(/C=C3\C(=O)Nc4ccc(Cl)cc43)c(C)nc2s1`, for which the GI50 was 93.9 µM and the TGI was over 100 µM.
Turning to `COc1ccc(C(=O)OC2C(OC3C(O)COC(O[C@H]4C[C@H]5[C@@H]6CC=C7C[C@@H](O)CC[C@]7(C)[C@H]6CC[C@]5(C)[C@H]4[C@H](C)C(=O)CCC(C)C)C3OC(N)=O)OCC(O)C2O)cc1` (some centres not stated), the GI50 is 0.0773 µM and the TGI was 4.75 µM.
Turning to `c1ccc2[nH]c(-c3ccc(-c4nccc5c4[nH]c4ccccc45)cc3)nc2c1`, the GI50 was 4.15 µM and the TGI is 18.6 µM.
Regarding `COC(=O)c1nc(-c2ccccc2)oc1S(=O)(=O)Cc1ccccc1`, the GI50 was 17.5 µM and the TGI came to 33.6 µM.
For the compound `CN(O)c1nc(N(C)O)nc(N2CCOCC2)n1`, the GI50 is 2.94 µM and the TGI is over 100 µM.
The like results for `COc1ccc(-c2c[nH]c(C(=O)O)c2-c2cc(OC)c(OC)c(OC)c2)cc1` were, in that order, 6.61 µM and over 100 µM.
The like results for `C#Cc1c(F)ccc2cc(O)cc(-c3ncc4c(N5CC6CCC(C5)N6)nc(OC[C@@]56CCCN5C[C@H](F)C6)nc4c3F)c12` were, in that order, 10.9 µM and 45.2 µM.
With `C=C(C)C(=O)Nc1ccc(NC(C)C)cc1`, the GI50 is over 100 µM and the TGI is over 100 µM.
`C=C(C)C(=O)O[C@H]1CC(=C)[C@@H]2C[C@H](O)[C@](O)(CCl)[C@@H]2[C@H]2OC(=O)C(=C)[C@@H]21`: the GI50 was 18.4 µM and the TGI was 38.2 µM.
Consider `CCC1C2Cc3ccc(O)cc3C1(CC)CCN2C` (configuration not stated), for which the TGI was over 100 µM.
For `COc1cnc2c(c1)C(=O)c1c-2n(CCCn2ccnc2)c(=O)c2cc(F)ccc12`, the GI50 is 0.0209 µM and the TGI is 1.5 µM.
As for `CC1CCC(NC(=O)N(CCCl)N=O)CC1` (configuration not stated), the GI50 is 23.6 µM; the TGI was 56.5 µM and 149 µM.
With `CC(C)[C@H](N)C(=O)N1CCC[C@H]1B(O)O`, the GI50 is over 100 µM and the TGI is over 100 µM.
As for `COc1ccc2cc(C(=O)/C=C/c3ccc(Cl)cc3Cl)ccc2c1`, the GI50 is 14.1 µM and the TGI is 31.9 µM.

A further test has as its system SK-MEL-28 melanoma. Kind of test: NCI anticancer screen, dose series, 48 h.
For `O=[N+]([O-])O.[Cu+2].[NH-]CC[NH-].[NH-]CC[NH-]`, the GI50 is over 10 µM and the TGI was over 10 µM.
With `Cc1nn2c(/C=C3\C(=O)Nc4ccc(Cl)cc43)c(C)nc2s1`, the GI50 is 27.5 µM and the TGI is over 100 µM.
The like results for `COc1ccc(C(=O)OC2C(OC3C(O)COC(O[C@H]4C[C@H]5[C@@H]6CC=C7C[C@@H](O)CC[C@]7(C)[C@H]6CC[C@]5(C)[C@H]4[C@H](C)C(=O)CCC(C)C)C3OC(N)=O)OCC(O)C2O)cc1` (some centres not stated) were, in that order, 0.033 µM and 0.137 µM.
The like results for `c1ccc2[nH]c(-c3ccc(-c4nccc5c4[nH]c4ccccc45)cc3)nc2c1` were, in that order, 1.96 µM and 3.75 µM.
As to `COC(=O)c1nc(-c2ccccc2)oc1S(=O)(=O)Cc1ccccc1`, the GI50 is 7.15 µM and the TGI was 20.4 µM.
The like results for `CN(O)c1nc(N(C)O)nc(N2CCOCC2)n1` were, in that order, 7.08 µM and over 100 µM.
The like results for `COc1ccc(-c2c[nH]c(C(=O)O)c2-c2cc(OC)c(OC)c(OC)c2)cc1` were, in that order, over 100 µM and over 100 µM.

Source of the values: PubChem BioAssay (NCI).
